According to patent publication US9365572B2, “PI3K and/or mTOR inhibitor” (XUANZHU PHARMA CO., LTD., priority 2012, dated 2016):

What was measured:
[1] = molecular target: Sigmaσ1 (Homo sapiens (Human), UniProt Q99720); experiment: Radioligand binding assay No. 278110; conditions: test substance 10 μM, read-out: Inhibitory rate (%), Sigmaσ1
[2] = molecular target: Opiate μ(OP3, MOP) (Homo sapiens (Human), UniProt P35372); experiment: Radioligand binding assay No. 260410; conditions: test substance 10 μM, read-out: Inhibitory rate (%), Opiate μ(OP3, MOP)
Opiate μ(OP3, MOP), sequence (P35372 whole entry): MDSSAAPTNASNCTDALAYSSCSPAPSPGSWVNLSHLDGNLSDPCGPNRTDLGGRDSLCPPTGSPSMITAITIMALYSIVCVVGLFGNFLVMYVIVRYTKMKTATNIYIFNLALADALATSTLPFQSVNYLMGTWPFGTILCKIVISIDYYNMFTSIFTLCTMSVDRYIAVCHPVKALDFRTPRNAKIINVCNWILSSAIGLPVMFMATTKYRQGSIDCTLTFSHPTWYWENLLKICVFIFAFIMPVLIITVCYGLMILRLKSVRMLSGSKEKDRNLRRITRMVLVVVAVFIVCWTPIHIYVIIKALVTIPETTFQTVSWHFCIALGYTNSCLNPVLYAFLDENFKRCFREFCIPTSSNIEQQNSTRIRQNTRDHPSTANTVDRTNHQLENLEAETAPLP

[3] = molecular target: Adenosine A2A (Homo sapiens (Human), UniProt P29274); experiment: Radioligand binding assay No. 200610; conditions: test substance 10 μM, read-out: Inhibitory rate (%), Adenosine A2A
Adenosine A2A, sequence (P29274 whole entry): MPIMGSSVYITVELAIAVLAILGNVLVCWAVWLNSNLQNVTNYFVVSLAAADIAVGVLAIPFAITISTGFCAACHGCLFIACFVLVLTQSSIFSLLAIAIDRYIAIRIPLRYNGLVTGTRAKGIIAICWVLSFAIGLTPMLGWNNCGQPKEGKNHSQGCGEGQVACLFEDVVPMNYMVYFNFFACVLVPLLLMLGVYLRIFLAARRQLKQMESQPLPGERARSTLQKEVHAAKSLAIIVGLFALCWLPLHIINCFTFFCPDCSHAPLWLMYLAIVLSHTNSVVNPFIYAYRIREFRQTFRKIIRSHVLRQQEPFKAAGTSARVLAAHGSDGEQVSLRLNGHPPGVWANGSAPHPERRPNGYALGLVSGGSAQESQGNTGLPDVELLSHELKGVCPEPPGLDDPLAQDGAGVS

[4] = molecular target: Platelet Activating Factor (PAF) (Homo sapiens (Human), UniProt P25105); experiment: Radioligand binding assay No. 265010; conditions: test substance 10 μM, read-out: Inhibitory rate (%), Platelet Activating Factor (PAF)
Platelet Activating Factor (PAF), sequence (P25105 whole entry): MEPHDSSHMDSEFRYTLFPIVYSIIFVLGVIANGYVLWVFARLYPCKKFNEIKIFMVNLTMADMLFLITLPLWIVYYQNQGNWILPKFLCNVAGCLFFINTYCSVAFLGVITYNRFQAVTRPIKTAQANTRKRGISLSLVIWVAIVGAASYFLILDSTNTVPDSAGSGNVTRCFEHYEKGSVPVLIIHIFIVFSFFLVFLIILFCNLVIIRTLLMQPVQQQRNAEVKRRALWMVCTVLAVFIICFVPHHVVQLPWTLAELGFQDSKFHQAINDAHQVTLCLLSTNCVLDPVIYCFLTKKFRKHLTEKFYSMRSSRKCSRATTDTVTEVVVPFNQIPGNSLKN

[5] = molecular target: Opiate δ1 (OP1, DOP) (Homo sapiens (Human), UniProt P41143); experiment: Radioligand binding assay No. 260130; conditions: test substance 10 μM, read-out: Inhibitory rate (%), Opiate δ1 (OP1, DOP)
Opiate δ1 (OP1, DOP), sequence (P41143 whole entry): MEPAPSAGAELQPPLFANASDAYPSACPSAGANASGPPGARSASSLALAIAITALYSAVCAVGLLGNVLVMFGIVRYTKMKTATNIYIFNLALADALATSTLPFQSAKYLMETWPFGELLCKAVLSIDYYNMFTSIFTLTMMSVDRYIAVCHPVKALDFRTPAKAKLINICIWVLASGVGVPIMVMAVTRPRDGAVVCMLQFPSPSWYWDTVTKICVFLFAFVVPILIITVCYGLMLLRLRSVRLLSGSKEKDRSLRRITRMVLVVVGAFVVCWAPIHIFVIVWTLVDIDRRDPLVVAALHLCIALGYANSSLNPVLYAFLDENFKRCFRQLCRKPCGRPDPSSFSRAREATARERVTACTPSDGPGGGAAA

[6] = tested on: Sodium Channel, Site2; experiment: Radioligand binding assay No. 279510; conditions: test substance 10 μM; rat
[7] = molecular target: Melatonin MT1 (Homo sapiens (Human), UniProt P48039); experiment: Radioligand binding assay No. 251600; conditions: test substance 10 μM, read-out: Inhibitory rate (%), Melatonin MT1
Melatonin MT1, sequence (P48039 whole entry): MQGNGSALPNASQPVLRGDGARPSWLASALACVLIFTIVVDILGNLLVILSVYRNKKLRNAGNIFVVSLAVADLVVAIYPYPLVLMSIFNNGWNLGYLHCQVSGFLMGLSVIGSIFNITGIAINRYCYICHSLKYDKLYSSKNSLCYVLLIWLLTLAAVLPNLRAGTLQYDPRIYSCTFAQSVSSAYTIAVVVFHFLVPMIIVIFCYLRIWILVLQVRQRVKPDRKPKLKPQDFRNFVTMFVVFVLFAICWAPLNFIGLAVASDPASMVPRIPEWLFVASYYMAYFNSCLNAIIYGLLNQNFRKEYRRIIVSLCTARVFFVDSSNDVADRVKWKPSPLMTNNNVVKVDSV

[8] = tested on: Phorbol Ester; experiment: Radioligand binding assay No. 264500; conditions: test substance 10 μM; mouse
[9] = tested on: MCF-7; experiment: In vitro cytological inhibitory activity (XTT); format: cell-based; conditions: Homo sapiens, MCF7, 72 hrs
Protocol: MCF-7: Human breast carcinoma cell line;
(§1) 1. Preparation of agents and compounds:
(§2) • 1.1 Preparation of phosphoric acid buffering solution (PBS): 8 g NaCl, 0.2 g KCl, 1.44 g Na2HPO4 and 0.24 g KH2PO4 were weighed and added to 800 mL ultrapure water. The mixture was adjusted to pH=7.4, and ultrapure water was added to the metered volume of IL. Then the autoclaving was conducted for 20 mins. • 1.2 Preparation of XTT detection working solution: 100 mg (2,3-Bis-(2-methoxy-4-nitro-5-sulfophenyl)-2H-tetrazolium-5-carboxanilide); 2,3-bis(2-methoxy-4-nitro-5-sulfophenyl)-5-[(phenylamino)carbonyl]-2H-tetrazolium hydroxide (XTT) powder was weighed, and dissolved under protection from light 300 mL of phenol red-free and serum-free RPMI1640 culture, which had been warmed up to 50° C. The resulting mixture was filtered, packaged and used immediately or in one week. The complete process was conducted under protection from light. • 1.3 Preparation of the test compound • Preparation of the stock solution of the test compound: The test compound powder was dissolved in DMSO in a concentration of 10 mM. • Preparation of the gradiently diluted solution of the test compound: 10 mM of the stock solution of the test compound was successively and gradiently diluted with DMSO by 4 folds for 10 concentrations. […]

[10] = molecular target: Epidermal Growth Factor (EGF) (Homo sapiens (Human), UniProt P00533); experiment: Radioligand binding assay No. 225510; conditions: test substance 10 μM, read-out: Inhibitory rate (%), Epidermal Growth Factor (EGF)
Epidermal Growth Factor (EGF), sequence (P00533 25-1210): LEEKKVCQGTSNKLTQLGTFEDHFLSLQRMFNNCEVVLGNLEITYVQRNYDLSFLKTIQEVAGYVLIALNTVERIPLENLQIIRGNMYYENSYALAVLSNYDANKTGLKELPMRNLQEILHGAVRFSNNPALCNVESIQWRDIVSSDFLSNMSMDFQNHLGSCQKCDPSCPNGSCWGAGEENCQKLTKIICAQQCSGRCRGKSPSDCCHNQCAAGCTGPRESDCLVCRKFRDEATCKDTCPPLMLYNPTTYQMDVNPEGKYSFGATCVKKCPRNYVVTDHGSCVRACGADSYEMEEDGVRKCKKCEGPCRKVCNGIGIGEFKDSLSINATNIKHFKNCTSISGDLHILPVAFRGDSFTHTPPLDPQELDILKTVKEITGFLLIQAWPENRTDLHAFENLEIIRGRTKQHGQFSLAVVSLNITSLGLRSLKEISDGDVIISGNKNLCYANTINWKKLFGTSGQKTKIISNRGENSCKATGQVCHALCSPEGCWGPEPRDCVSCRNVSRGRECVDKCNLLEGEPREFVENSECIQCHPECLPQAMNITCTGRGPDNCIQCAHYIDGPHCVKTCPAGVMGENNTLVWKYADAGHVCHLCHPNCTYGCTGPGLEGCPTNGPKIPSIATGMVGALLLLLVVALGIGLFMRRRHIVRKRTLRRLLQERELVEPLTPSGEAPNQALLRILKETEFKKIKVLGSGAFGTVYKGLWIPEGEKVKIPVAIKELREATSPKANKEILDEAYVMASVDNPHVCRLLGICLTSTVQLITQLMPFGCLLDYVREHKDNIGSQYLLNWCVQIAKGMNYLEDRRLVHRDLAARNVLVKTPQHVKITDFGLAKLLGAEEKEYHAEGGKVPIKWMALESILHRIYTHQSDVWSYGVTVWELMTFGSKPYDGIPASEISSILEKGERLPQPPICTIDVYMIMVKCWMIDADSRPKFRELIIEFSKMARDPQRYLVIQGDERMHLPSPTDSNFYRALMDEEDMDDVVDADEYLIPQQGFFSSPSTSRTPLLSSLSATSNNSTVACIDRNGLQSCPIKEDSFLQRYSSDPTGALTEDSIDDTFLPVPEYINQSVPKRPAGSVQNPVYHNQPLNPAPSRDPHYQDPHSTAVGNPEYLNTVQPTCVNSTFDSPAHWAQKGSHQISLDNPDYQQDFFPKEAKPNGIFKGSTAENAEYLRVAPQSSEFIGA

[11] = molecular target: Glucocorticoid (Homo sapiens (Human), UniProt P04150); experiment: Radioligand binding assay No. 232030; conditions: test substance 10 μM, read-out: Inhibitory rate (%), Glucocorticoid
Glucocorticoid, sequence (P04150 whole entry): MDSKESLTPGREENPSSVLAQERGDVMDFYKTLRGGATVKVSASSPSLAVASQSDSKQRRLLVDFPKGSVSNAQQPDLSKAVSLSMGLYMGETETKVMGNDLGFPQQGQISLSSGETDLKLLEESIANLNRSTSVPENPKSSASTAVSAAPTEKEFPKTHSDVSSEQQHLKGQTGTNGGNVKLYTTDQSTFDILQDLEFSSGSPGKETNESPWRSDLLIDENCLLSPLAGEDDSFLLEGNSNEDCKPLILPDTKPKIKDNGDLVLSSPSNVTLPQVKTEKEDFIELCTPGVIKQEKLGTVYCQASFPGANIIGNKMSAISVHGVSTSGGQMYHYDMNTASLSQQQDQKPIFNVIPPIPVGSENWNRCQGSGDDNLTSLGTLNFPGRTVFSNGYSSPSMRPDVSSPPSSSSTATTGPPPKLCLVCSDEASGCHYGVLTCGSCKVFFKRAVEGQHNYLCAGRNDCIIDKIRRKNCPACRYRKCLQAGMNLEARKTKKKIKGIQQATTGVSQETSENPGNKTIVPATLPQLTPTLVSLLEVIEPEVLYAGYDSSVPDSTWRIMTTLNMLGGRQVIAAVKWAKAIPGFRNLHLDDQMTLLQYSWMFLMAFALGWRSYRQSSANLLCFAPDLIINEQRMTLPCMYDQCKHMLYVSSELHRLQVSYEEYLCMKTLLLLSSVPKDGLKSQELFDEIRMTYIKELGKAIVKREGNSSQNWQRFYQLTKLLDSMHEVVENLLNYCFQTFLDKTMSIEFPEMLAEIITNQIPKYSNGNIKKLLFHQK

[12] = tested on: non-kinase drug target ligands listed in Table 5; experiment: Drug target radioligand competitive binding assay, whole panel of Table 5; conditions: test substance 10 μM, summary of Table 5
[13] = molecular target: Transporter, Norepinephrine (NET) (Homo sapiens (Human), UniProt P23975); experiment: Radioligand binding assay No. 204410; conditions: test substance 10 μM, read-out: Inhibitory rate (%), Transporter, Norepinephrine (NET)
Transporter, Norepinephrine (NET), sequence (P23975 whole entry): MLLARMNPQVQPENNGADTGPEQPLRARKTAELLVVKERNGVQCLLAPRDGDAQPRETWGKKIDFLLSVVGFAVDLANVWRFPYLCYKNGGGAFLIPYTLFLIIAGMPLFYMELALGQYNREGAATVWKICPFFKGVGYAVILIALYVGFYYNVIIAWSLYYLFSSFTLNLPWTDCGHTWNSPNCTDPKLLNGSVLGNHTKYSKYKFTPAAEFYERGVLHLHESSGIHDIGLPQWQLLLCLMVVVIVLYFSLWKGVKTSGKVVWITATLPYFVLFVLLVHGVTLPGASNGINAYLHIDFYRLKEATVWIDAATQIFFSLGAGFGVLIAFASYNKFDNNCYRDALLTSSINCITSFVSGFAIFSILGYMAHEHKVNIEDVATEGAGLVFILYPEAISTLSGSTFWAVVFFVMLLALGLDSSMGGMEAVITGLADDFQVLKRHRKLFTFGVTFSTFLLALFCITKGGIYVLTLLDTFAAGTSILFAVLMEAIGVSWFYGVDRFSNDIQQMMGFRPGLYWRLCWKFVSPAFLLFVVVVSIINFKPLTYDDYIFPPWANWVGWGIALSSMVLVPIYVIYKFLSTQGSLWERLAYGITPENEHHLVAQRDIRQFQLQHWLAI

[14] = tested on: U87MG; experiment: In vitro cytological inhibitory activity (XTT); format: cell-based; conditions: Homo sapiens, U-87 MG, 72 hrs
Protocol: U87MG: Human brain astrocytoblast cell line;
as §1, §2

Sigmaσ1, sequence (Q99720 whole entry): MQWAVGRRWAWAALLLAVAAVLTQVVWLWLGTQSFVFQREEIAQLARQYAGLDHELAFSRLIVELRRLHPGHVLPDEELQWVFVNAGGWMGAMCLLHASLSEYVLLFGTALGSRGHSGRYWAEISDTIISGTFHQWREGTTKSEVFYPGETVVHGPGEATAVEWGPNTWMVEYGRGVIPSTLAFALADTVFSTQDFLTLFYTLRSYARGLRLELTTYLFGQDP

| IC50 [14] [nM] | SMILES | inhibition at 10 µM [1] [%] | inhibition at 10 µM [2] [%] | inhibition at 10 µM [3] [%] | inhibition at 10 µM [4] [%] | inhibition at 10 µM [5] [%] | Inhibitory rate (%), Sodium Channel, Site2 [6] [%] | inhibition at 10 µM [7] [%] | Inhibitory rate (%), Phorbol Ester [8] [%] | IC50 [9] [nM] | inhibition at 10 µM [10] [%] | inhibition at 10 µM [11] [%] | inhibitory rates on the listed non-kinase drug target ligands [12] | inhibition at 10 µM [13] [%] |
| --- | --- | --- | --- | --- | --- | --- | --- | --- | --- | --- | --- | --- | --- | --- |
| – | Nc1ccc(-c2ccc3ncc4c(=O)[nH]c(=O)n(-c5cccc(C(F)(F)F)c5)c4c3n2)cn1 [Compound 5, 9-(6-aminopyridin-3-yl)-1-(3-(trifluoromethyl)phenyl)pyrimido[5,4-c][1,5]naphthyridine-2,4(1H,3H)-dione] | 13 | 2 | 0 | 20 | 4 | 7 | 17 | 27 | 28.2 | 11 | -4 | less than 50% | -5 |
| 28.3 | O=c1[nH]c(=O)n(-c2cccc(C(F)(F)F)c2)c2c1cnc1ccc(-c3cnc4[nH]ccc4c3)nc12 [Compound 30, 9-(1H-pyrrolo[2,3-b]pyridin-5-yl)-1-(3-(trifluoromethyl)phenyl)pyrimido[5,4-c][1,5]naphthyridine-2,4(1H,3H)-dione] | – | – | – | – | – | – | – | – | – | – | – | – | – |
